Structures can show the parent of a compound that is named as a salt. Where two headings read alike, the source gives them in different places. Where a SMILES comes first, the peptide text is derived from it. [ ]: non-standard residue; d: D form. The star is where a group is joined. Sta = CC(C)C[C@H](N)[C@@H](O)CC(=O)O; Isovaleryl = CC(C)CC(=O)*
Assays:
Assay in all cases: AK assay 384-well format, Prestwick library screening
[1] = system: E. faecium; format: cell-based, Enterococcus faecium; settings: 50 μM final drug concentration; for fold induction at 50 µM: Enterococcus faecium, 3 h
[2] = system: S. aureus strain USA300-0114; format: cell-based, Staphylococcus aureus; settings: 50 μM final drug concentration; for fold induction at 50 µM: Staphylococcus aureus, USA300, 3 h
[3] = system: K. pneumoniae; format: cell-based, Klebsiella pneumoniae; settings: 50 μM final drug concentration; for fold induction at 50 µM: Klebsiella pneumoniae, 3 h
[4] = system: A. baumannii strain 98-37-09; format: cell-based, Acinetobacter baumannii; settings: 50 μM final drug concentration; for fold induction at 50 µM: Acinetobacter baumannii, 983709, 3 h
[5] = system: P. aeruginosa; format: cell-based, Pseudomonas aeruginosa; settings: 50 μM final drug concentration; for fold induction at 50 µM: Pseudomonas aeruginosa, 3 h
[6] = system: E. cloacae; format: cell-based, Enterobacter cloacae; settings: 50 μM final drug concentration; for fold induction at 50 µM: Enterobacter cloacae, 3 h
[7] = system: E. coli; format: cell-based, Escherichia coli; settings: 50 μM final drug concentration; for fold induction at 50 µM: Escherichia coli, 3 h
[8] = cutoff for positive-scoring molecules 3-fold increase, read-out: AK-based Prestwick Library Screening Results, E. faecium (fold increase in extracellular AK activity)
[9] = cutoff for positive-scoring molecules 3-fold increase, read-out: AK-based Prestwick Library Screening Results, S. aureus (fold increase in extracellular AK activity)
[10] = cutoff for positive-scoring molecules 3-fold increase, read-out: AK-based Prestwick Library Screening Results, K. pneumoniae (fold increase in extracellular AK activity)
[11] = cutoff for positive-scoring molecules 3-fold increase, read-out: AK-based Prestwick Library Screening Results, A. baumannii (fold increase in extracellular AK activity)
[12] = cutoff for positive-scoring molecules 3-fold increase, read-out: AK-based Prestwick Library Screening Results, P. aeruginosa (fold increase in extracellular AK activity)
[13] = cutoff for positive-scoring molecules 3-fold increase, read-out: AK-based Prestwick Library Screening Results, E. cloacae (fold increase in extracellular AK activity)
[14] = cutoff for positive-scoring molecules 3-fold increase, read-out: AK-based Prestwick Library Screening Results, E. coli (fold increase in extracellular AK activity)
[15] = planktonic, cutoff for positive 3-fold increase, read-out: AK-based Prestwick Library Screening Results, E. faecium (fold increase in extracellular AK activity)
[16] = planktonic, cutoff for positive 3-fold increase, read-out: AK-based Prestwick Library Screening Results, S. aureus (fold increase in extracellular AK activity)
[17] = planktonic, cutoff for positive 3-fold increase, read-out: AK-based Prestwick Library Screening Results, K. pneumoniae (fold increase in extracellular AK activity)
[18] = planktonic, cutoff for positive 3-fold increase, read-out: AK-based Prestwick Library Screening Results, A. baumannii (fold increase in extracellular AK activity)
[19] = planktonic, cutoff for positive 3-fold increase, read-out: AK-based Prestwick Library Screening Results, P. aeruginosa (fold increase in extracellular AK activity)
[20] = planktonic, cutoff for positive 3-fold increase, read-out: AK-based Prestwick Library Screening Results, E. cloacae (fold increase in extracellular AK activity)
[21] = planktonic, cutoff for positive 3-fold increase, read-out: AK-based Prestwick Library Screening Results, E. coli (fold increase in extracellular AK activity)
[22] = planktonic, cutoff for positive-scoring molecules 3-fold increase, read-out: AK-based Prestwick Library Screening Results, E. faecium (fold increase in extracellular AK activity)
[23] = planktonic, cutoff for positive-scoring molecules 3-fold increase, read-out: AK-based Prestwick Library Screening Results, S. aureus (fold increase in extracellular AK activity)
[24] = planktonic, cutoff for positive-scoring molecules 3-fold increase, read-out: AK-based Prestwick Library Screening Results, K. pneumoniae (fold increase in extracellular AK activity)
[25] = planktonic, cutoff for positive-scoring molecules 3-fold increase, read-out: AK-based Prestwick Library Screening Results, A. baumannii (fold increase in extracellular AK activity)
[26] = planktonic, cutoff for positive-scoring molecules 3-fold increase, read-out: AK-based Prestwick Library Screening Results, P. aeruginosa (fold increase in extracellular AK activity)
[27] = planktonic, cutoff for positive-scoring molecules 3-fold increase, read-out: AK-based Prestwick Library Screening Results, E. cloacae (fold increase in extracellular AK activity)
[28] = planktonic, cutoff for positive-scoring molecules 3-fold increase, read-out: AK-based Prestwick Library Screening Results, E. coli (fold increase in extracellular AK activity)

Compound: O=C(O)c1ccccc1C(=O)Nc1ccc(S(=O)(=O)Nc2nccs2)cc1 [Phthalylsulfathiazole]
- fold induction at 50 µM [1, 8]: 1
- fold induction at 50 µM [2, 9]: 1.4
- fold induction at 50 µM [3, 10]: 1
- fold induction at 50 µM [4, 11]: 1.4
- fold induction at 50 µM [5, 12]: 1
- fold induction at 50 µM [6, 13]: 1.2
- fold induction at 50 µM [7, 14]: 1.4

Compound: OCc1cc(C(O)CNCCCCCCOCCCCc2ccccc2)ccc1O (stereo not shown) [Salmeterol]
- fold induction at 50 µM [1, 8]: 1
- fold induction at 50 µM [2, 9]: 1.9
- fold induction at 50 µM [3, 10]: 1.1
- fold induction at 50 µM [4, 11]: 1.5
- fold induction at 50 µM [5, 12]: 1.2
- fold induction at 50 µM [6, 13]: 1.5
- fold induction at 50 µM [7, 14]: 1.4

Compound: O=C(N[C@H](CO)[C@H](O)c1ccc([N+](=O)[O-])cc1)C(Cl)Cl [Chloramphenicol]
- fold induction at 50 µM ([1]; 384-well format, cutoff for positive-scoring molecules 3-fold increase, read-out: AK-based Prestwick Library Screening Results, E. faecium (increase in extracellular AK activity)): 0.8
- fold induction at 50 µM ([2]; 384-well format, cutoff for positive-scoring molecules 3-fold increase, read-out: AK-based Prestwick Library Screening Results, S. aureus (increase in extracellular AK activity)): 9.7
- fold induction at 50 µM ([3]; 384-well format, cutoff for positive-scoring molecules 3-fold increase, read-out: AK-based Prestwick Library Screening Results, K. pneumoniae (increase in extracellular AK activity)): 0.2
- fold induction at 50 µM ([4]; 384-well format, cutoff for positive-scoring molecules 3-fold increase, read-out: AK-based Prestwick Library Screening Results, A. baumannii (increase in extracellular AK activity)): 1
- fold induction at 50 µM ([5]; 384-well format, cutoff for positive-scoring molecules 3-fold increase, read-out: AK-based Prestwick Library Screening Results, P. aeruginosa (increase in extracellular AK activity)): 0.8
- fold induction at 50 µM ([6]; 384-well format, cutoff for positive-scoring molecules 3-fold increase, read-out: AK-based Prestwick Library Screening Results, E. cloacae (increase in extracellular AK activity)): 1.5
- fold induction at 50 µM ([7]; 384-well format, cutoff for positive-scoring molecules 3-fold increase, read-out: AK-based Prestwick Library Screening Results, E. coli (increase in extracellular AK activity)): 0.7

Compound: CCN(CC)CC(=O)Nc1c(C)cccc1C [Lidocaine hydrochloride]
- fold induction at 50 µM ([1]; planktonic E. faecium, 384-well, cutoff for positive-scoring molecules 3-fold increase, read-out: AK-based Prestwick Library Screening Results: E. faecium (increase in extracellular AK activity)): 1.2
- fold induction at 50 µM ([2]; planktonic S. aureus, 384-well, cutoff for positive-scoring molecules 3-fold increase, read-out: AK-based Prestwick Library Screening Results: S. aureus (increase in extracellular AK activity)): 1.1
- fold induction at 50 µM ([3]; planktonic K. pneumoniae, 384-well, cutoff for positive-scoring molecules 3-fold increase, read-out: AK-based Prestwick Library Screening Results: K. pneumoniae (increase in extracellular AK activity)): 1.1
- fold induction at 50 µM ([4]; planktonic A. baumannii, 384-well, cutoff for positive-scoring molecules 3-fold increase, read-out: AK-based Prestwick Library Screening Results: A. baumannii (increase in extracellular AK activity)): 1.1
- fold induction at 50 µM ([5]; planktonic P. aeruginosa, 384-well, cutoff for positive-scoring molecules 3-fold increase, read-out: AK-based Prestwick Library Screening Results: P. aeruginosa (increase in extracellular AK activity)): 1.1
- fold induction at 50 µM ([6]; planktonic E. cloacae, 384-well, cutoff for positive-scoring molecules 3-fold increase, read-out: AK-based Prestwick Library Screening Results: E. cloacae (increase in extracellular AK activity)): 1.3
- fold induction at 50 µM ([7]; planktonic E. coli, 384-well, cutoff for positive-scoring molecules 3-fold increase, read-out: AK-based Prestwick Library Screening Results: E. coli (increase in extracellular AK activity)): 1.3

Compound: O=C(/C=C/C=C/c1ccc2c(c1)OCO2)N1CCCCC1 [Piperine]
- fold induction at 50 µM [1, 15]: 0.3
- fold induction at 50 µM [2, 16]: 0.2
- fold induction at 50 µM [3, 17]: 0.3
- fold induction at 50 µM [4, 18]: 0.4
- fold induction at 50 µM [5, 19]: 0.4
- fold induction at 50 µM [6, 20]: 1.6
- fold induction at 50 µM [7, 21]: 0.4

Compound: Nc1ccccc1S(N)(=O)=O [Compound 2-Aminobenzenesulfonamide, 2-Aminobenzenesulfonamide]
- fold induction at 50 µM [1, 22]: 0.9
- fold induction at 50 µM [2, 23]: 0.8
- fold induction at 50 µM [3, 24]: 0.7
- fold induction at 50 µM [4, 25]: 0.9
- fold induction at 50 µM [5, 26]: 0.9
- fold induction at 50 µM [6, 27]: 1.4
- fold induction at 50 µM [7, 28]: 1.1

Compound: CC=CC(=O)N(CC)c1ccccc1C [Crotamiton]
- AK-based Prestwick Library Screening Results, E. faecium (fold increase in extracellular AK activity) ([1]; […]): 1.1
- AK-based Prestwick Library Screening Results, S. aureus (fold increase in extracellular AK activity) ([2]; […]): 1.3
- AK-based Prestwick Library Screening Results, K. pneumoniae (fold increase in extracellular AK activity) ([3]; […]): 1.1
- AK-based Prestwick Library Screening Results, A. baumannii (fold increase in extracellular AK activity) ([4]; […]): 1.3
- AK-based Prestwick Library Screening Results, P. aeruginosa (fold increase in extracellular AK activity) ([5]; […]): 1.3
- AK-based Prestwick Library Screening Results, E. cloacae (fold increase in extracellular AK activity) ([6]; […]): 1.3
- AK-based Prestwick Library Screening Results, E. coli (fold increase in extracellular AK activity) ([7]; […]): 1.5

Compound: CN[C@@H]1[C@H](O)[C@H](NC)[C@H]2O[C@@]3(O)C(=O)C[C@@H](C)O[C@H]3O[C@@H]2[C@H]1O [Spectinomycin dihydrochloride]
- fold induction at 50 µM [1, 22]: 1
- fold induction at 50 µM [2, 23]: 0.6
- fold induction at 50 µM [3, 24]: 0.2
- fold induction at 50 µM [4, 25]: 0.5
- fold induction at 50 µM [5, 26]: 0.5
- fold induction at 50 µM [6, 27]: 0.6
- fold induction at 50 µM [7, 28]: 0.6

Compound: CC(C)CC(=O)N[C@H](C(=O)N[C@H](C(=O)N[C@@H](CC(C)C)[C@@H](O)CC(=O)N[C@@H](C)C(=O)N[C@@H](CC(C)C)[C@@H](O)CC(=O)O)C(C)C)C(C)C [Pepstatin A] (Isovaleryl-VV[Sta]A[Sta]-OH)
- AK-based Prestwick Library Screening Results: E. faecium (increase in extracellular AK activity) ([1]; planktonic E. faecium, 384-well, […]): 0.8
- AK-based Prestwick Library Screening Results: S. aureus (increase in extracellular AK activity) ([2]; planktonic S. aureus, 384-well, […]): 0.4
- AK-based Prestwick Library Screening Results: K. pneumoniae (increase in extracellular AK activity) ([3]; planktonic K. pneumoniae, 384-well, […]): 0.5
- AK-based Prestwick Library Screening Results: A. baumannii (increase in extracellular AK activity) ([4]; planktonic A. baumannii, 384-well, […]): 0.4
- AK-based Prestwick Library Screening Results: P. aeruginosa (increase in extracellular AK activity) ([5]; planktonic P. aeruginosa, 384-well, […]): 0.4
- AK-based Prestwick Library Screening Results: E. cloacae (increase in extracellular AK activity) ([6]; planktonic E. cloacae, 384-well, […]): 0.4
- AK-based Prestwick Library Screening Results: E. coli (increase in extracellular AK activity) ([7]; planktonic E. coli, 384-well, […]): 0.5

Compound: CCOC(=O)C1=C(C)NC(C)=C(C(=O)OC)C1c1cccc(Cl)c1Cl (stereo not shown) [Felodipine]
- fold induction at 50 µM [1, 15]: 1.3
- fold induction at 50 µM [2, 16]: 2.5
- fold induction at 50 µM [3, 17]: 1
- fold induction at 50 µM [4, 18]: 3
- fold induction at 50 µM [5, 19]: 1
- fold induction at 50 µM [6, 20]: 1.7
- fold induction at 50 µM [7, 21]: 1.2

Reference: patent US10004701B2, “Methods and compositions for treating infection” (UNIVERSITY OF ROCHESTER, priority 2012, dated 2018)
